Series [1] has as its system Haemonchus contortus. In words: In vivo percentage Haemonchus contortus egg reduction in sheep at dose 0.10 mg/kg body weight. Format: functional. To be noted: dose 0.1 mg/kg.
The nature of series [2]: Partition coefficient (logP) (HPLC). To be noted: octanol/water. Format: physicochemical.
Series [3] has as its system Haemonchus contortus. In words: In vivo percentage Haemonchus contortus egg reduction in sheep at dose 0.25 mg/kg body weight. In kind it is functional.
The test system of series [4] is Haemonchus contortus. In words: In vivo percentage Haemonchus contortus egg reduction in sheep at dose 0.05 mg/kg body weight. Format: functional.
In series [5] the test system is Haemonchus contortus. In words: In vivo percentage Haemonchus contortus egg reduction in sheep at dose 0.01 mg/kg body weight. In kind it is functional.
The subject of series [6] is Haemonchus contortus. In words: In vivo percentage Haemonchus contortus egg reduction in sheep at dose. 20 mg/kg body weight. In kind it is functional, organism-based. As to conditions: at 20 mg/kg. Details: dose 20 mg/kg.
Series [7] relates to Haemonchus contortus. In words: In vivo percentage Haemonchus contortus egg reduction in sheep at dose 20 mg/kg body weight. In kind it is functional.
The subject of series [8] is Haemonchus contortus. The series is described as follows: In vivo percentage Haemonchus contortus egg reduction in sheep at dose 0.25 mg/kg body weight; Range 50-75%. Format: functional.

The source of these data is ChEMBL document CHEMBL1141926, “Synthesis and anthelmintic activity of 7-substituted 3,4a-dimethyl-4a,5a,8a,8b-tetrahydro-6H-pyrrolo[3',4':4,5]furo[3,2-b]pyridine-6,8(7H)-diones” (Bioorg Med Chem Lett, 2005).

A word on the logP: it is a log measure of how a compound divides between an organic and an aqueous phase. In the case of `CC1=CC2(C)OC3C(=O)N(Cc4ccccc4)C(=O)C3C2N=C1` (stereo not drawn), the Reduction entry in series [1] is on record as “>=95%”. This molecule also came in with a logP in series [2] of 1.51.

As to `CC1=CC2(C)OC3C(=O)N(C)C(=O)C3C2N=C1` (stereo not drawn), the Reduction result in series [1] was “>=95%”. The molecule also showed a logP in series [2] of less than 0. Consider `CCN1C(=O)[C@@H]2[C@H](O[C@@]3(C)C=C(C)C=N[C@H]23)C1=O`, for which the logP in series [2] is 0.46. Also, in series [3], the Reduction result was “>=95%”. As for `CC1=CC2(C)OC3C(=O)N(C4CC4)C(=O)C3C2N=C1` (stereo not drawn), in series [4], the Reduction result was “>=95%”. The molecule also registered a logP in series [2] of 0.5. On to `CCN1C(=O)C2OC3(C)C=C(C)C=NC3C2C1=O` (stereo not drawn), for which, in series [5], the Reduction entry is on record as “>=95%”. This molecule had a logP in series [2] of 0.46. Take `CCCCN1C(=O)C2OC3(C)C=C(C)C=NC3C2C1=O` (stereo not drawn): in series [4], the Reduction result is “>=95%”. The logP in series [2] stood at 1.3. IVERMECTIN showed a Reduction in series [6] greater than 95%. In the case of `COC(=O)Nc1nc2cc(C(=O)c3ccccc3)ccc2[nH]1` [MEBENDAZOLE], in series [7], the Reduction result is given as “>=95%”. In series [8], `CCN1C(=O)[C@H]2[C@@H](O[C@]3(C)C=C(C)C=N[C@@H]23)C1=O` gave a Reduction of 75%. The logP in series [2] is 0.46. In the case of `CC1=CC2(C)OC3C(=O)N([C@@H](C)c4ccccc4)C(=O)C3C2N=C1` (stereo partly drawn), the Reduction result in series [4] is “>=95%”. The molecule further showed a logP in series [2] of 1.7.
